Assay results published in publication PMC12165043, “Neophytadiene, a Plant Specialized Metabolite, Mediates the Virus‐Vector‐Plant Tripartite Interactions” (Advanced Science, 2025).
Where “and” joins values, the source holds several entries; their conditions need not be identical. Equal entries are not always repeated.

Legend:
[1] = system: Bemisia tabaci whiteflies; experiment: Y-tube olfactory choice assay, volatile standard versus solvent control; type: in vivo; settings: for Whitefly preference for plant volatiles versus control (solvent only): number of whiteflies in the volatile arm: Fig 1F raw data, individual replicates (n = 9), 100 whiteflies released, counted for 20 min; for impact of volatile on whitefly preference: Y-tube, volatile standard versus solvent control, n = 9, result in words
Protocol: Y‐tube preference assays were conducted as per Shi et al.^[ [51] ^] with an air flow of 100 mL min^−1. A volatile standard (Sigma Aldrich, USA) and control (solvent) were placed in glass containers at either end of the Y‐tube and 100 whiteflies were released at the Y‐tube base. The number of whiteflies moving more than 5 cm into the Y‐tube arm and remaining there for at least 15 s was counted for 20 min. There were nine replicates per volatile for each of the eight volatile compounds.

BtOBP2 = molecular target: T1, BtOBP2 (Bemisia tabaci, UniProt A0A097BTY7); experiment: Fluorescence competitive binding assay (displacement of 1-NPN from BtOBP2); settings: mean ± SEM; for IC50: BtOBP2 2 µM, ligand 2 to 20 µM, read-out: IC50, ligand concentration displacing 50% of the fluorescence intensity of the BtOBP2/1-NPN complex; for Ki: Ki = [IC50]/(1 + [1-NPN]/K1-NPN), read-out: Ki, dissociation constant
T1 sequence (A0A097BTY7 23-247): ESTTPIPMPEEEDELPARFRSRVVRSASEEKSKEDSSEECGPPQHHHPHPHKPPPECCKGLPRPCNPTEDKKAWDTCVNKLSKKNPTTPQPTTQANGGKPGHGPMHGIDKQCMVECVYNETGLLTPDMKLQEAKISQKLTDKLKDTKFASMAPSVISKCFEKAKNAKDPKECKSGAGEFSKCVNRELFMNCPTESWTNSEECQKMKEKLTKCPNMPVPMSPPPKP
From the text: The specific primers for BtOBP2 were designed using Primer 5 software to amplify the coding sequence according to the Phanta Max Super‐Fidelity DNA Polymerase protocol. Target DNA fragments were purified and ligated into the pEASY‐Blunt cloning vector, and positive colonies were identified by PCR and sequenced. The cloned plasmid was ligated into the pET28a vector (Invitrogen, Waltham USA) following digestion with BamHI and SalI. The resulting construct was transformed into Rosetta (DE3) Escherichia coli competent cells. When the OD600 of the recombinant BtOBP2 reached 0.6 to 0.8, induction was initiated by adding isopropyl‐β‐D‐1‐thiogalactopyranoside (IPTG) (1 mM) at 16 °C for 16 h, followed by purification using the Ni‐NTA purification system.^[ [59] ^] The target protein was verified by 10% SDS‐PAGE, and its concentration was determined with a BCA protein assay kit. The recombinant purified protein was stored at −80 °C until use. The target protein was subjected to Coomassie blue staining and western blot validation through 10% SDS‐PAGE using anti His‐Tag antibody, and its concentration was determined using a BCA protein assay kit. The purified recombinant protein was stored at −80 °C.
The binding affinity of BtOBP2 to the fluorescent probe N‐phenyl‐1‐naphthyl‐amine (1‐NPN1) was determined using a FL7000 fluorescence spectrophotometer (Hitachi, Tokyo Japan). Ligands and 1‐NPN were dissolved in HPLC‐grade methanol to a concentration of 1 mM, and then titrated with BtOBP2 (2 µM) to final concentrations ranging from 2 to 20 µM.^[ [60] ^] The optimal excitation and emission wavelengths of the recombinant protein BtOBP2 were determined, and the 1‐NPN/BtOBP2 mixture was excited at 220 nm with emission spectra recorded from 300 to 500 nm. The binding constants (Kd) of BtOBP2 to 1‐NPN were calculated by Scatchard analysis using Prism 5 software. The IC50 represents the concentration at which 50% of the probe was displaced by the ligand. The Ki values were calculated according to the following equation: Ki = [IC50]/(1 + [1‐NPN]/K1‐NPN), where [1‐NPN] is the free concentration of 1‐NPN, and K1‐NPN is the Kd of the 1‐NPN/BtOBP2 complex.^[ [61] ^]

Trialeurode vaporariorum = system: Trialeurode vaporariorum; parameters: method as in PMID 35244166; settings: ref [47]; cited from earlier work

Row | Compound | Whitefly preference for plant volatiles versus control (solvent only): number of whiteflies in the volatile arm [1] | impact of volatile on whitefly preference [1] | IC50 (BtOBP2) | Ki (BtOBP2) | effect on settling of whitefly on an otherwise-preferred tomato cultivar (Trialeurode vaporariorum)
1 | CC1=CC=C(C(C)C)CC1 [α‐terpinene] | 9 and 19 and 28 and 37 and 36 and 43 | significantly repelled whiteflies | 20.4 ± 1.29 µM | 15.2 ± 0.96 µM | 
2 | C=C1CC/C=C(\C)CC[C@@H]2[C@@H]1CC2(C)C [β‐caryophyllene] | 41 and 20 and 16 and 6 and 19 and 27 and 31 and 10 and 39 | significantly repelled whiteflies | 14.2 ± 0.72 µM | 10.6 ± 0.54 µM | 
3 | C=C1C=CC(C(C)C)CC1 (stereo not drawn) [β‐phellandrene] | 34 and 28 and 40 and 32 and 46 and 20 and 36 and 43 and 14 | significantly repelled whiteflies | 25.4 ± 3.39 µM | 19 ± 2.53 µM | 
4 | C=C1CCC2CC1C2(C)C (stereo not drawn) [β‐pinene] | 12 and 26 and 37 and 29 and 28 and 24 and 10 and 31 and 15 | significantly repelled whiteflies | 13.7 ± 0.51 µM | 10.2 ± 0.38 µM | 
5 | Cc1ccc(C(C)C)cc1 [ρ‐cymene] | 10 and 20 and 17 and 26 and 18 and 25 and 27 and 23 | significantly repelled whiteflies | 16.3 ± 0.49 µM | 12.1 ± 0.36 µM | repelled
6 | phytol | 58 and 50 and 60 and 24 and 48 and 27 and 44 and 38 | did not influence whitefly preference | 26.1 ± 1.48 µM | 19.5 ± 1.1 µM | 
